Among the test systems are BT-549 breast; COLO 205 colon; HCT-15 colon; M14 melanoma; NCI-H23 lung; OVCAR-8 ovarian; SR leukemia; UACC-257 melanoma; CAKI-1 renal; NCI-H226 lung.
Assay in all cases: NCI anticancer screen, dose series, 48 h

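Protocol summary: plate cells (96-well), add compound at 5 concentrations, incubate 48 h, interpolate endpoints linearly. Here, GI50 denotes the concentration required for 50% inhibition of growth. TGI: concentration producing complete growth inhibition.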

With `O=C1c2cccnc2C(=O)c2c1c(C(=O)NCCCN1CCCCC1)c1ccccn21`, the GI50 was 2.47 µM in the assay with BT-549 breast; 0.268 µM with COLO 205 colon; 0.816 µM in the assay with HCT-15 colon; 1.15 µM in the assay on M14 melanoma; 0.436 µM in the assay on NCI-H23 lung; 0.75 µM with OVCAR-8 ovarian. The GI50 with SR leukemia is 0.474 µM; in the assay with UACC-257 melanoma it was 0.813 µM. The TGI worked out at 6.89 µM in the assay with BT-549 breast; 0.928 µM with COLO 205 colon; 2.57 µM with HCT-15 colon; 2.44 µM with M14 melanoma; 2.75 µM in the assay with NCI-H23 lung; 5.58 µM in the assay with OVCAR-8 ovarian. For the same compound, the TGI was above 100 µM with SR leukemia and 2.18 µM with UACC-257 melanoma.

Take `NNC(=O)CS(=O)(=O)Nc1ncccn1`: the TGI with BT-549 breast, in the assay on CAKI-1 renal, in the assay with COLO 205 colon, in the assay with HCT-15 colon, with M14 melanoma and in the assay on NCI-H226 lung was above 100 µM in each case. In addition, the TGI in the assay on NCI-H23 lung, in the assay on OVCAR-8 ovarian and with UACC-257 melanoma was above 100 µM each time.

Consider `CCCCCCCCCCCCCCCCCC1=NCCN1CCOC1=C(Cl)C(=O)c2ccccc2C1=O`, for which the GI50 in the assay with BT-549 breast is 2.46 µM; with CAKI-1 renal it was 1.57 µM; in the assay with COLO 205 colon, 1.67 µM; in the assay on M14 melanoma, 1.84 µM; in the assay on NCI-H23 lung it was 2.5 µM; in the assay with OVCAR-8 ovarian, 1.95 µM. Moreover, the GI50 was 2.07 µM in the assay with SR leukemia and 1.83 µM in the assay on UACC-257 melanoma. Moreover, the TGI in the assay on BT-549 breast was found to be 6.12 µM; in the assay with CAKI-1 renal, 2.98 µM; in the assay on COLO 205 colon it was 3.09 µM; in the assay on M14 melanoma it was 3.39 µM; in the assay with NCI-H23 lung, 7.73 µM; in the assay with OVCAR-8 ovarian, 4.43 µM. Further, the TGI in the assay with SR leukemia stood at 4.72 µM; with UACC-257 melanoma it was 3.3 µM.

For the compound `CO[C@H]1CC(O[C@@H]2/C(C)=C/C[C@@H]3C[C@@H](C[C@]4(C=C[C@H](C)[C@@H](C5CCCCC5)O4)O3)OC(=O)[C@@H]3C=C(C)[C@@H](O)[C@H]4OC/C(=C\C=C\[C@@H]2C)[C@]43O)O[C@@H](C)C1O[C@H]1C[C@H](OC)[C@@H](O)[C@H](C)O1` (stereo not given in full), the GI50 in the assay on BT-549 breast is 1.78 µM; with CAKI-1 renal, 1.22 µM; with COLO 205 colon it was 2.03 µM; in the assay with M14 melanoma it was 1.67 µM; in the assay with NCI-H226 lung, 1.45 µM; with OVCAR-8 ovarian, 2.07 µM. Further, the GI50 in the assay with SR leukemia was 1.86 µM. Moreover, the TGI with BT-549 breast stood at 3.24 µM; with CAKI-1 renal, 2.73 µM; in the assay with COLO 205 colon, 3.71 µM; in the assay with M14 melanoma, 3.13 µM; in the assay with NCI-H226 lung, 2.95 µM; in the assay on OVCAR-8 ovarian it was 5.29 µM. Also, the TGI in the assay on SR leukemia is 4.62 µM.

For `COc1cccc(OC(=O)c2ccc(C(F)(F)F)nc2Nc2cc(Cl)ccc2C)c1`, the GI50 with BT-549 breast is 7.63 µM; with CAKI-1 renal, 17.6 µM; in the assay with COLO 205 colon, 4.04 µM; with HCT-15 colon, 4.33 µM; in the assay with M14 melanoma it was 19.3 µM; in the assay with NCI-H226 lung, 4.88 µM. Besides, the figures for the GI50 in the assay with NCI-H23 lung, with OVCAR-8 ovarian and in the assay with UACC-257 melanoma were 20.2 µM, 24.2 µM and 13.3 µM, respectively. Further, the TGI in the assay on BT-549 breast was 41.7 µM; in the assay with CAKI-1 renal, 36.1 µM; with COLO 205 colon, above 100 µM; in the assay on HCT-15 colon it was above 100 µM; with M14 melanoma, 56.6 µM; in the assay on NCI-H226 lung, 31.5 µM. In addition, the TGI in the assay on NCI-H23 lung was 49.5 µM; with OVCAR-8 ovarian it was above 100 µM; in the assay with UACC-257 melanoma it was 54.8 µM.

On to `CC(C)C[C@H](NC(=O)CNC(=O)c1cc(Cl)ccc1Cl)B1OC(=O)CC(CC(=O)O)(C(=O)O)O1` (stereo not given in full), for which the GI50 is 0.0324 µM with BT-549 breast; 0.041 µM in the assay with CAKI-1 renal; 0.0868 µM in the assay with COLO 205 colon; 0.0578 µM in the assay with HCT-15 colon; 0.034 µM in the assay with M14 melanoma; 0.0141 µM in the assay on NCI-H226 lung. Besides, the results for the GI50 with NCI-H23 lung, in the assay with OVCAR-8 ovarian and in the assay with SR leukemia were 0.048 µM, 0.066 µM and 0.0384 µM, respectively. Further, the TGI in the assay on BT-549 breast turned out to be 0.126 µM; in the assay on CAKI-1 renal it was 4.48 µM; with COLO 205 colon, 22.3 µM; with HCT-15 colon it was 5.98 µM; in the assay with M14 melanoma, 0.143 µM; with NCI-H226 lung it was 0.0325 µM. Further, the TGI in the assay on NCI-H23 lung is 6.44 µM; in the assay on OVCAR-8 ovarian, 1.44 µM; in the assay with SR leukemia, above 100 µM.

For the compound `O=C(/C=C\c1cccc([N+](=O)[O-])c1)/C=C/c1cccc([N+](=O)[O-])c1`, the GI50 was 3.48 µM in the assay with BT-549 breast; 4.4 µM in the assay with CAKI-1 renal; 3.03 µM in the assay with COLO 205 colon; 5.1 µM in the assay with HCT-15 colon; 2.49 µM with M14 melanoma; 15.4 µM with NCI-H226 lung. The values for the GI50 in the assay on NCI-H23 lung, in the assay with OVCAR-8 ovarian and in the assay with UACC-257 melanoma were 4.43 µM, 5.25 µM and 21.4 µM, respectively. Besides, the TGI with BT-549 breast is 12.5 µM; in the assay with CAKI-1 renal it was above 100 µM; in the assay on COLO 205 colon, 7.94 µM; with HCT-15 colon, above 100 µM; in the assay on M14 melanoma, 7.33 µM; in the assay with NCI-H226 lung it was above 100 µM. For the same compound, the TGI in the assay on NCI-H23 lung, with OVCAR-8 ovarian and with UACC-257 melanoma was above 100 µM throughout.

`COc1cc2c(c(OC)c1OC)-c1ccc(SC)c(=O)cc1C(NC(=O)c1ccccc1)CC2` (stereo not given): the TGI in the assay with BT-549 breast is above 31.6 µM; in the assay with CAKI-1 renal it was 48.5 µM; in the assay with COLO 205 colon, below 0.01 µM; with M14 melanoma, 30.3 µM; in the assay on NCI-H23 lung, 0.903 µM; with OVCAR-8 ovarian, 24.6 µM. For the same compound, the TGI with SR leukemia stood at 27 µM; in the assay with UACC-257 melanoma, 18.4 µM.

Consider `O=C1c2c(c3c4ccccc4[nH]c3c3ccc4ccccc4c23)C(=O)N1CCN1CCNCC1`, for which the GI50 with BT-549 breast is 1.58 µM; with CAKI-1 renal, 1.37 µM; in the assay on COLO 205 colon, 1.78 µM; in the assay on HCT-15 colon, 1.49 µM; with M14 melanoma it was 1.67 µM; with NCI-H226 lung, 11.7 µM. Besides, the figures for the GI50 with NCI-H23 lung, in the assay on SR leukemia and with UACC-257 melanoma were 1.84 µM, 0.598 µM and 1.87 µM, respectively. Besides, the TGI in the assay with BT-549 breast was found to be 2.97 µM; in the assay with CAKI-1 renal it was 2.69 µM; in the assay with COLO 205 colon, 3.6 µM; in the assay on HCT-15 colon, 2.98 µM; in the assay on M14 melanoma, 3.24 µM; in the assay with NCI-H226 lung it was 33.3 µM. Moreover, the TGI is 3.7 µM in the assay on NCI-H23 lung, 2.63 µM with SR leukemia and 3.82 µM in the assay with UACC-257 melanoma.

Source of the values: PubChem BioAssay (NCI).
